Like-named read-outs stand apart in the source and are kept apart here. Where a SMILES comes first, the peptide text is derived from it. Bridges are numbered along the chain shown (N, C = ends). Roman numbers before positions name the chains, in order.
How the values were obtained:
[1] = Calcein release from mammalian model membrane SUVs; details: PC:Cholesterol, compared with fungal model membrane
Experimental: Small unilamellar vesicles (SUVs) were prepared using PC/PE/PI or PS lipids (5:2.5:2.5) containing 15 wt % ergosterol or PC/Cholesterol (10:1) (Makovitzki et al., 2006). For the preparation of PC/PE/PI or PS/Erg SUV, the lipids were dissolved in chloroform/methanol (2:1, v/v) in a glass tube. Ergosterol was dissolved in same solvent and added to lipid mixture to make final ergosterol content of 15 wt %. The Lipid-ergosterol mixture was dried using nitrogen gas to form lipid layer. The film was hydrated in a buffer containing 20 mM PBS (pH 7), vortexed and sonicated. Each cycle of sonication (5 sec, 40° C.) is followed by freezing in liquid nitrogen and thawing on a water bath kept at 37° C. The procedure was repeated 5-6 times until an optically clear dispersion appeared. The SUV was divided into two parts. To the first part 50 mM calcein was added and incubated for 1 h. […] Changes in the fluorescence signal after addition of peptide or Triton X-100 was measured on a PTI spectrofluorometer, using an excitation wavelength of 480 nm and emission wavelength of 512 nm. The Percentage calcein released at each time point was calculated using the equation: […]
Where A0 is the observed fluorescence intensity upon addition of peptides, Amin is the average intensity at the baseline (before peptide addition), Amax is the average intensity at the saturation phase after adding 1% Triton X-100. […]

C. albicans ATCC10231 = assay: MIC in the presence of monovalent and divalent metal ions; format: cell-based
Experimental: For studying the effects of metal ions, SD broth was adjusted with appropriate concentrations of salts to yield a final concentration of 100 and 135 mM for NaCl and KCl and 0.5-2 mM for CaCl2 and MgCl2. MIC determinations were carried out as described above. C. albicans ATCC10231 cells and salts in broth were taken as a positive control. Salts alone (NaCl, KCl, and CaCl2 and MgCl2) in broth or with 22 μM peptide served as a negative control.

IOBA-NHC cells = format: cell-based, human; details: 24 h incubation; read-out: EC50 (concentration that reduces the viable cells by 50%)
In short: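 Subconfluent (~70%) IOBA-NHC conjunctival cells, passages 50–80, seeded ~10,000/well and grown 24 h at 37 °C in supplemented DMEM/F12 with 10% FBS. Exposed to peptide at 0.22–225 μM; cytotoxicity followed over time by MultiTox-Fluor […] fluorescence (ex 485/em 520 nm).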

C. albicans = format: cell-based; details: 50% tear fluid
Experimental: For all the experiments, unless otherwise stated, ATCC 10231 strain was used. B4010 (1 mg/ml) was incubated with trypsin (enzyme:peptide ratio 1:100) at 37° C. 20 μL aliquot of this mixture was withdrawn at various time intervals (0.5, 1, 2, 4 and 6 h) and mixed with 1 μL of trypsin inhibitor. The antifungal activity of the peptide was determined by adding this mixture to 180 μl of inoculum and monitoring the growth at OD600 for 24 h. Similar experiments performed in the presence of trypsin/trypsin inhibitor (without B4010) were used as a positive control. For assessing the antifungal activity in tear fluid (TF), the peptide was dissolved in freshly collected rabbit TF and incubated at 37° C. for 6 h. After incubation, an equal volume of an overnight culture of C. albicans (˜10^6 CFU/ml) was mixed with peptides in tear fluid and incubated at 37° C. for 24 h. The final concentrations of the peptide were at 4.4, 8.8 and 22 μM. A 100 μL aliquot of serial dilutions (10^2 or 10^3 times) of this mixture were inoculated on a SD agar plate and then incubated for 48 h at 37° C. Culture alone and culture with 50% tear fluid served as the positive control. The data was expressed in % killing with respect to culture without tear fluid.

CC(C)[C@H](NC(=O)[C@H](CCCCN)NC(=O)[C@H](CCCNC(=N)N)NC(=O)CNC(=O)[C@@H](N)CCCNC(=N)N)C(=O)N[C@H](C(=O)N[C@@H](CCCNC(=N)N)C(=O)N[C@@H](CCCNC(=N)N)C(=O)NCCCC[C@H](NC(=O)[C@H](CCCNC(=N)N)NC(=O)[C@H](CCCNC(=N)N)NC(=O)[C@@H](NC(=O)[C@@H](NC(=O)[C@H](CCCCN)NC(=O)[C@H](CCCNC(=N)N)NC(=O)CNC(=O)[C@@H](N)CCCNC(=N)N)C(C)C)C(C)C)C(=O)NCCCC[C@H](NC(=O)[C@H](CCCCNC(=O)[C@H](CCCNC(=N)N)NC(=O)[C@H](CCCNC(=N)N)NC(=O)[C@@H](NC(=O)[C@@H](NC(=O)[C@H](CCCCN)NC(=O)[C@H](CCCNC(=N)N)NC(=O)CNC(=O)[C@@H](N)CCCNC(=N)N)C(C)C)C(C)C)NC(=O)[C@H](CCCNC(=N)N)NC(=O)[C@H](CCCNC(=N)N)NC(=O)[C@@H](NC(=O)[C@@H](NC(=O)[C@H](CCCCN)NC(=O)[C@H](CCCNC(=N)N)NC(=O)CNC(=O)[C@@H](N)CCCNC(=N)N)C(C)C)C(C)C)C(=O)N[C@@H](CCCCN)C(=O)O)C(C)C [Peptide B4010] (I: H-RGRKVVRRKKK-OH / II: H-RGRKVVRRK / III: H-RGRKVVRR / IV: H-RGRKVVRR; amide I:9-IV:C, I:10-II:C, II:9-III:C; N-terminus and C-terminus assumed)
calcein leakage [1]: less calcein leakage
increase in MIC (C. albicans ATCC10231; 25 mM KCl): 8 fold
increase in MIC compared to medium without KCl (C. albicans ATCC10231; 100 mM KCl): > 16 fold
decrease in MIC (C. albicans ATCC10231; 135 mM NaCl): 2 fold
change in MIC (C. albicans ATCC10231; high concentration of Ca2+ and Mg2+ ions): two fold increase
increase in MIC (C. albicans ATCC10231; physiological concentrations of divalent cations): 2 fold
EC50 (IOBA-NHC cells): 220 µM
candidacidal activity (C. albicans; 22 μM): no loss of activity
candidacidal activity (C. albicans; 4.4 and 8.8 μM): moderately suppressed
